Measurements reported in US20140296567A1, “3-HYDROXYANTHRANILIC ACID (3-HAA) THERAPY FOR PREVENTION AND TREATMENT OF HYPERLIPIDEMIA AND ITS CARDIOVASULAR COMPLICATIONS” (priority 2011, published 2014).

Columns and labels:
[1] = tested on: peritoneal macrophages from LdIr−/− mice; test: OxLDL uptake by peritoneal macrophages (FITC-oxLDL, flow cytometry); type: cell-based; conditions: macrophages from mice treated with 3-HAA 200 mg/Kg i.p. for 8 weeks vs PBS; 20 μg/ml FITC-oxLDL, 2 h, 37° C.; P<0.01
Procedure: Peritoneal macrophages from LdIr−/− mice injected with 3-HAA (200 mg/Kg) or PBS (8 weeks treatment) were incubated with FITC-oxLDL at a concentration of 20 μg protein/ml for 2 h at 37° C. The uptake was quantified by flow cytometry. (A) Values given are MFI of FITC-oxLDL, means±SE of triplicate wells for each mouse (n=5 and 6, for 3-HAA or PBS respectively).
LDL was labeled using a modification of a previously described method^32. Briefly, LDL (1.5-2 mg/ml) was dialyzed overnight against 500 mM NaHCO3 pH 9.5. Next, 50 μg of FITC (Sigma-Aldrich, St. Louis, Mo., USA), dissolved in DMSO (1 mg/ml), was added for each mg of protein in LDL, and incubated at room temperature for 2 hours. After incubation conjugates were separated from the free fluorochrome by gel filtration using a PD10 column (GE Healthcare, Uppsala, Sweden) and PBS for elution. FITC conjugation was evaluated by absorption spectroscopy against a FITC standard curve at 495 nm. Protein concentration was determined by Bradford assay (Biorad, Calif., USA). […] The extent of oxidation was evaluated by the TBARS assay, as described^33.
Twenty four hours after the last injection of 3-HAA or PBS, peritoneal macrophages were isolated from LdIr−/− mice by peritoneal lavage with PBS. […] The cells were analyzed on a CyAn™ ADP flow cytometer (Dako, Glostrup, Denmark).

LdIr−/− mice [2] = test: Plasma lipid analysis (total cholesterol, triglycerides; enzymatic colorimetric kits); type: in vivo; conditions: 3-HAA 200 mg/kg i.p., 8 weeks, high-fat diet, vs PBS; P<0.01
Procedure: It was hypothesized that induction of protective immunity, with effects on metabolism and inflammation, could be achieved by injecting 3-HAA (200 mg/kg) intraperitoneally, 3 times per week, for 8 weeks. Twelve weeks old LdIr−/− mice were treated with 3-HAA, or PBS as control. The mice were fed a high-fat diet starting 2 days after the first injection until sacrifice, 8 weeks later with CO2.
Plasma cholesterol and triglycerides were measured using enzymatic colorimetric kits according to the manufacturer's protocol. Dissected aortic arches were stained with Sudan IV en face and % lesion area of total vessel area was calculated. Additionally, the effect of 3-HAA on the uptake oxLDL was evaluated in cultures of peritoneal macrophages from 3-HAA or PBS treated mice.
(§1) LdIr−/− mice were bred and housed in the Animal Experimentation Unit at the Center for Molecular Medicine, Karolinska University Hospital. The mice (n=7-10 per group) received 3 intra-peritoneal injections of PBS (200 μl) or 3-HAA (200 mg/Kg in PBS) per week for 6 weeks and 1 injection per week in the following two weeks (total 24 injections) and were sacrificed with CO2. […]
Plasma cholesterol and triglycerides were measured using enzymatic colorimetric kits (Randox Lab. Ltd. Crumin, UK) according to the manufacturer's protocol.

LdIr−/− mice [3] = test: Lipoprotein profiles of plasma (size fractionation, cholesterol per fraction); type: in vivo; conditions: 3-HAA 200 mg/kg i.p., 8 weeks
Procedure: (§2) LdIr−/− mice were bred and housed in the Animal Experimentation Unit at the Center for Molecular Medicine, Karolinska University Hospital. The mice (n=7-10 per group) received 3 intra-peritoneal injections of PBS (200 μl) or 3-HAA (200 mg/Kg in PBS) per week for 6 weeks and 1 injection per week in the following two weeks (total 24 injections) and were sacrificed with CO2. The mice were fed a high-fat diet (corn starch, cocoa butter, casein, glucose, sucrose, cellulose flour, minerals and vitamins; 17.2% protein, 21% fat (62.9% saturated, 33.9 unsaturated and 3.4% polyunsaturated), 0.15% cholesterol, 43% carbohydrates, 10% H2O and 3.9% cellulose fibers; R638 Lantmännen, Sweden) starting 2 days after the start of treatment.
Plasma cholesterol lipoprotein profiles were determined using a modification of the method of Okazaki et al^34. Briefly, plasma samples (50 μl) from mice treated with 3-HAA or PBS were fractionated using an HR10/30 Superose 6 column (GE Healthcare, Uppsala, Sweden) and a Discovery BIO GFC-500 as pre-column (5 cm×7.8 i.d.; Supelco®, Sigma-Aldrich, PA, USA) coupled to Prominence UFLC system (Shimadzu, Kyoto, Japan) and equilibrated with Tris-buffered saline, pH 7.4. Fractions of 200 μl were collected using Foxy Jr® fraction collector (Teledyne Isco Inc, NE, USA) and total cholesterol was determined in each fraction using enzymatic colorimetric kit (Randox Lab. Ltd. Crumin, UK).

LdIr−/− mice [4] = test: Lesion analysis, en face Sudan IV staining of the aortic arch; type: in vivo; conditions: 3-HAA 200 mg/kg i.p., 8 weeks on high fat diet, vs PBS; P<0.001
Procedure: Twelve weeks old LdIr−/− mice were treated with 3-HAA or PBS as control. The mice were sacrificed after 8 weeks on a Western diet. Dissected arches were stained with Sudan IV en face and % lesion area of total vessel area was calculated using Image J image analysis software (NIH, Bethesda, Md.). The additive area of all the plaques in a given aortic arch was calculated as a percent of the total surface area of the arch. (n=7 and 10, for 3-HAA or PBS respectively). ***) P<0.001.
as §1
En face lipid accumulation was determined in the aortic arch from 3-HAA and PBS treated mice using Sudan IV staining. […] The additive area of all the plaques in a given aortic arch was calculated as a percent of the total surface area of the arch (not including branching vessels). Quantitation of plaques was performed using Image J software (NIH, Bethesda, USA).

[5] = Body weight of treated mice; type: in vivo; conditions: 3-HAA 200 mg/kg i.p., 8 weeks; data not shown
Procedure: as §2

## Nc1c(O)cccc1C(=O)O [3-HAA, 2-Amino-3-hydroxybenzoic acid]
[1]
  reduced uptake of FITC-oxLDL: approx 79%
LdIr−/− mice [2]
  reduction in plasma total cholesterol: approx 50%
  reduction in plasma triglycerides: approx 72%
LdIr−/− mice [3]; high-fat diet, vs PBS
  HDL levels: effectively raised HDL levels
LdIr−/− mice [3]; mean±SEM, PBS group 2.3±0.24, P<0.05
  LDL/HDL ratio: 1.4±0.16
LdIr−/− mice [3]; mean±SEM, PBS group 4.0±0.55, P<0.01
  VLDL/HDL ratio: 1.4±0.31
LdIr−/− mice [4]
  reduction in atherosclerotic lesion area in en face preparations of the aortic arch: approximately 90%
[5]
  effect on body weight: no effect on body weight
